Results: patent publication EP0432983A2 (priority 1989, dated 1991)
In brackets after ≈: the same amount, converted by molar mass.

How the values were obtained:
[1] = test system: VSV (Vesicular Stomatitis Virus); type: cell-based
[2] = test system: CV-1 (monkey kidney fibroblast cells); assay: Toxicity throughout the CV-1 cell sheet (Table 3); type: cell-based
Experimental: (§1) This test is performed according to standard procedures for determination of cytotoxicity of a compound againt virus infected cells. In the present case, CV-1 (monkey kidney fibroblast cells) are infected with HSV-1 and the compounds of the invention tested against these at varying concentrations.
(§2) The numbers show the toxicity throughout the CV-1 cells sheet. (-) indicates no reduction in viral plaque production (+) indicates a 50% reduction in viral plaque production (++) indicates an 80% reduction in viral plaque production.

[3] = test system: L-1210 cells (mouse lymphoma); assay: Activity against L-1210 cells; type: cell-based
HSV-1 [4] = assay: Viral plaque reduction in HSV-1 infected CV-1 cells (Table 3); type: cell-based; design: key: (-) indicates no reduction in viral plaque production; (+) indicates a 50% reduction in viral plaque production; (++) indicates an 80% reduction in viral plaque production
Experimental: as §1, §2

HSV-1 [5] = assay: Inhibition of HSV-1 replication (anti-viral effect), PFU determination; type: cell-based; settings: Human alphaherpesvirus 1; HSV-1 replication in CV-1 cells, 10 PFU per cell, 24 hours after infection
Experimental: 16mm dia. wells are seeded each with 2 x 10⁵ CV-1 cells in 1ml aliquots of MEM10C. After three days, the cells are infected with HSV-1 at 10 PFU (Plaque Forming Units) per cell. The inoculum is replaced, after adsorption for 1.5 hours, in pairs of wells with 0. 5 ml aliquots of MEM5C containing the test concentrations of each of AH-1 and AH-2. Four hours from infection, the cells from two wells are scraped into the medium and frozen to -80°C. [The average of PFU/ml of these samples forms the base for calculating net virus production]. The remaining samples are collected in pairs of wells 24 hours after infection and are also frozen to -80°C. For determination of PFU/ml, each sample is diluted to 10⁻⁸.

CV-1 cells = assay: Inhibition of growth of CV-1 cells (cytotoxic effect); type: cell-based, monkey
Experimental: CV-1 cells are seeded into 16 mm dia. wells at 10⁴ cells per well in 1ml aliquots of MEM10C. The following day, the medium is replaced with 0.5 ml aliquots of MEM10C containing the test concentrations of compounds AH-1 and AH-2, i. e. 0, 0.1, 0.5, 1, 5, 10 and 50 µg/ml. Determinations are all carried out in duplicate. Four days after seeding, the cells are trypsinised and counted. Percentage inhibition (%I) relative to the wells without test compound (i.e. the controls) is calculated and the IC₅₀ determined.

Cc1cc2c(c3c1OCO3)C(C)CCC2C(C)CC(=O)CC(C)C (stereo not shown) [AH-2, Helioporin B]
activity against VSV [1]: no activity
toxicity throughout the CV-1 cells sheet ([2]; 5µl of 500µg/ml in MeOH/Acet): 0
toxicity throughout the CV-1 cells sheet ([2]; 10µl of 500µg/ml in MeOH/Acet): 0
toxicity throughout the CV-1 cells sheet ([2]; 20µl of 500µg/ml in MeOH/Acet): 0
toxicity throughout the CV-1 cells sheet ([2]; 40µl of 500µg/ml in MeOH/Acet): 0
activity against L-1210 cells [3]: no activity
reduction in viral plaque production (HSV-1 [4]; 5µl of 500µg/ml in MeOH/Acet): -
reduction in viral plaque production (HSV-1 [4]; 10µl of 500µg/ml in MeOH/Acet): -
reduction in viral plaque production (HSV-1 [4]; 20µl of 500µg/ml in MeOH/Acet): + ((+) indicates a 50% reduction in viral plaque production)
reduction in viral plaque production (HSV-1 [4]; 40µl of 500µg/ml in MeOH/Acet): ++ ((++) indicates an 80% reduction in viral plaque production)
IC50 (HSV-1 [5]): 1.6 µg/mL (≈ 4.84 µM)
inhibition of growth (CV-1 cells; CV-1 cells, 0.1, 0.5, 1, 5, 10 and 50 µg/ml): no inhibition of growth
IC50 (CV-1 cells; Primates, 96 h, CV-1 cell growth, counted four days after seeding): > 50 µg/mL
